From ChEMBL document CHEMBL3997792, “Identification of the First Selective Activin Receptor-Like Kinase 1 Inhibitor, a Reversible Version of L-783277” (J Med Chem, 2017) come the findings set out here.

Data set [1] has as its target T1, Activin receptor type-1-like (Homo sapiens, UniProt P37023). The experiment in a line: Inhibition of human ALK1 at 10 uM using casein as substrate in presence of [gamma-33P]-ATP by scintillation counting method relative to control.
Data set [2] has as its target T2, Activin receptor type-1-like (Mus musculus) (UniProt Q61288).
T2 sequence (whole entry): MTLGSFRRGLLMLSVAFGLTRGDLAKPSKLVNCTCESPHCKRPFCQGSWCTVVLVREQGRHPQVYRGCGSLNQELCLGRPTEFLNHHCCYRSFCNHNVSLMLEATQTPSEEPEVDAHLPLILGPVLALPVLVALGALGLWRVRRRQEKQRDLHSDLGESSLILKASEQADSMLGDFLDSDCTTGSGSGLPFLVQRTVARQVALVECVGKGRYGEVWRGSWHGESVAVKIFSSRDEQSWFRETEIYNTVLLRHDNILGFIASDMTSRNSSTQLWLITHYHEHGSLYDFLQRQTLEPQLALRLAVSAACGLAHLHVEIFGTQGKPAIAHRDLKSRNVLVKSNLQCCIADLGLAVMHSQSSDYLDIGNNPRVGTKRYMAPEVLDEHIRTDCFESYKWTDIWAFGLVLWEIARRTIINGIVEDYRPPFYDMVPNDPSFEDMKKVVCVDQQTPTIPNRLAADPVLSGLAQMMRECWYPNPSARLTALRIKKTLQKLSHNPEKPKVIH
In words: Inhibition of BMP9-stimulated ALK1 in mouse C2C12 cells assessed as reduction in Smad1/5 phosphorylation at 10 uM pretreated for 2 hrs followed by BMP9-stimulation after 30 mins by western blot analysis relative to control. In kind it is cell-based.

For data set [3], the target named is Vascular endothelial growth factor receptor 3 (Homo sapiens, UniProt P35916). The experiment in a line: Inhibition of human FLT4 using poly[Glu:Tyr] (4:1) as substrate in presence of [gamma-33P]-ATP by scintillation counting method.
For data set [4], the target named is Mitogen-activated protein kinase kinase kinase 20 (Homo sapiens) (UniProt Q9NYL2). The note with it: 1 uM.
Mitogen-activated protein kinase kinase kinase 20 (Homo sapiens), sequence (Q9NYL2 2-800 limits assumed): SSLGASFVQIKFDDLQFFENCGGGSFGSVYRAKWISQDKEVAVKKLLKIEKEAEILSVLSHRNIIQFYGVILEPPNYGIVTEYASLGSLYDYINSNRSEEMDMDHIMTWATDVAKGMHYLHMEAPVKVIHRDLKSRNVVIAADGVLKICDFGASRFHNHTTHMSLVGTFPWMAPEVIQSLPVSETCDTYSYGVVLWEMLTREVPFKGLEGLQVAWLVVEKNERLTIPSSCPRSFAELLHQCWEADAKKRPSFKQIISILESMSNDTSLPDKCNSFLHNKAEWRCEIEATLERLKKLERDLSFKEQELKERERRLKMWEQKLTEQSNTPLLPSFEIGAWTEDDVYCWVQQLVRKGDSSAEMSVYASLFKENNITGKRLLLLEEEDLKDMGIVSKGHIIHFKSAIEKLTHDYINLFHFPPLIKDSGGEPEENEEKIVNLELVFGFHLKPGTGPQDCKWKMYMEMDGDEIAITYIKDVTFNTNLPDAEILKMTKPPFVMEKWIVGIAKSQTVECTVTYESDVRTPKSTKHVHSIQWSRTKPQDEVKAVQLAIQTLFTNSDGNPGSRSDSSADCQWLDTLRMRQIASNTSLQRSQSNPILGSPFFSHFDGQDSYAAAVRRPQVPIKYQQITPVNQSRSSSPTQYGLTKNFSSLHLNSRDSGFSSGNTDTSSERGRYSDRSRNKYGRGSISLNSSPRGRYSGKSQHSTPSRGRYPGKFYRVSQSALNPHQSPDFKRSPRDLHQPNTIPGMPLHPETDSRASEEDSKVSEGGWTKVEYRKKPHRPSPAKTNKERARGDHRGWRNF
Description: Inhibition of human ZAK at 1 uM using myelin basic protein as substrate in presence of [gamma-33P]-ATP by scintillation counting method relative to control
In data set [5] the target is Mitogen-activated protein kinase kinase kinase 7 (Homo sapiens) (UniProt O43318). The note with it: 1 uM.
Description: Inhibition of human TAK1 at 1 uM using casein as substrate in presence of [gamma-33P]-ATP by scintillation counting method relative to control
Data set [6] has as its target MAP kinase-interacting serine/threonine-protein kinase 2 (Homo sapiens) (UniProt Q9HBH9). The note with it: 1 uM.
Description: Inhibition of human MNK2 at 1 uM using myelin basic protein as substrate in presence of [gamma-33P]-ATP by scintillation counting method relative to control
The target of data set [7] is T3, TGF-beta receptor type-1 (Mus musculus, UniProt Q64729).
T3 sequence (Q64729 whole entry): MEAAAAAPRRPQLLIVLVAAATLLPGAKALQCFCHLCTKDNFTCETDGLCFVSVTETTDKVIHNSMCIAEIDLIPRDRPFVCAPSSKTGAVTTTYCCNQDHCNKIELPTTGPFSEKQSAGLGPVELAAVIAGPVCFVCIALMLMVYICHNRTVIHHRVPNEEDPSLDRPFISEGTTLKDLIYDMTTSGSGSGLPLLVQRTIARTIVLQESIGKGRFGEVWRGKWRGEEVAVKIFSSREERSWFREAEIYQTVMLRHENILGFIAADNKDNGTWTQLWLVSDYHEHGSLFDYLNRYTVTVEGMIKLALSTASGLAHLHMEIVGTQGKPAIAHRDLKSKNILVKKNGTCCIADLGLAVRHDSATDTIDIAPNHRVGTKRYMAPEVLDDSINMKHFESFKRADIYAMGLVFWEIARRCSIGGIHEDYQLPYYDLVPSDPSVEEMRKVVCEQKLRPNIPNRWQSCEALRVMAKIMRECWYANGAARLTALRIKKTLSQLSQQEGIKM
In words: Inhibition of ALK5 in mouse C2C12 cells assessed as decrease in TGFbeta1-induced Smad2/3 phosphorylation at 0.1 to 10 uM by Western blot method. Format: cell-based.

The target of data set [8] is T2, Activin receptor type-1-like (Mus musculus). In words: Inhibition of BMP9-stimulated ALK1 in mouse C2C12 cells assessed as decrease in MEK phosphorylation at 0.1 to 10 uM pretreated for 2 hrs followed by BMP9-stimulation after 30 mins by western blot analysis. In kind it is cell-based. Background: Immunoblotting shows a protein as a band on a membrane.
Data set [9] addresses TGF-beta receptor type-2 (Homo sapiens) (UniProt P37173). The note with it: 1 uM.
Description: Inhibition of human TGFbetaR2 at 1 uM using myelin basic protein as substrate in presence of [gamma-33P]-ATP by scintillation counting method relative to control
In data set [10] the target is T3, TGF-beta receptor type-1. The experiment in a line: Inhibition of ALK5 in mouse C2C12 assessed as decrease in TGFbeta1-induced Smad1/5 phosphorylation at 0.1 to 10 uM by Western blot method.
Data set [11] has as its target Receptor-type tyrosine-protein kinase FLT3 (Homo sapiens, UniProt P36888). In words: Inhibition of human FLT3 using EAIYAAPFAKKK peptide as substrate in presence of [gamma-33P]-ATP by scintillation counting method.
Data set [12] has as its target MAP kinase-interacting serine/threonine-protein kinase 1 (Homo sapiens) (UniProt Q9BUB5). The note with it: 1 uM.
Description: Inhibition of human MNK1 at 1 uM using myelin basic protein as substrate in presence of [gamma-33P]-ATP by scintillation counting method relative to control
Data set [13] addresses Dual specificity mitogen-activated protein kinase kinase 2 (Homo sapiens, UniProt P36507). In words: Inhibition of human MEK2 using ERK2 as substrate in presence of [gamma-33P]-ATP by scintillation counting method.
The target in data set [14] is Dual specificity mitogen-activated protein kinase kinase 6 (Homo sapiens) (UniProt P52564). In words: Inhibition of human MKK6 at 1 uM using p38a as substrate in presence of [gamma-33P]-ATP by scintillation counting method relative to control.
Dual specificity mitogen-activated protein kinase kinase 6 (Homo sapiens), sequence (P52564 whole entry): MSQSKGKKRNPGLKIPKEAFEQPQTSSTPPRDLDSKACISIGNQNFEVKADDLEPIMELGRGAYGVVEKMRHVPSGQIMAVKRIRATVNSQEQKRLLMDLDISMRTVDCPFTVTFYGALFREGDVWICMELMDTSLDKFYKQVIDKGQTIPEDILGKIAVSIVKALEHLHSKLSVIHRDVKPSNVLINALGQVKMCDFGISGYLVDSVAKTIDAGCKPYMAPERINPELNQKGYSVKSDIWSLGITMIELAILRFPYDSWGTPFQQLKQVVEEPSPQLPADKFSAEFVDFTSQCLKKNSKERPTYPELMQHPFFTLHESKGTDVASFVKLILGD
Data set [15] concerns the target T1, Activin receptor type-1-like. In words: Inhibition of human ALK1 using casein as substrate in presence of [gamma-33P]-ATP by scintillation counting method.
The target of data set [16] is Dual specificity mitogen-activated protein kinase kinase 6 (Homo sapiens, UniProt P52564). The experiment in a line: Inhibition of human MKK6 using p38a as substrate in presence of [gamma-33P]-ATP by scintillation counting method.
Dual specificity mitogen-activated protein kinase kinase 6, sequence (P52564 whole entry): as above
Data set [17] concerns the target T1, Activin receptor type-1-like. The conditions noted are these: 0.1 to 10 uM.
Description: Inhibition of ALK1 in human A375 cells assessed as decrease in MEK1/2 phosphorylation at 0.1 to 10 uM by western blot analysis
The target of data set [18] is T2, Activin receptor type-1-like (Mus musculus). In words: Inhibition of BMP9-stimulated ALK1 in mouse C2C12 cells assessed as decrease in ERK1/2 phosphorylation at 0.1 to 10 uM pretreated for 2 hrs followed by BMP9-stimulation after 30 mins by western blot analysis. In kind it is cell-based.
The target is the same in data set [19]. The experiment in a line: Inhibition of BMP9-stimulated ALK1 in mouse C2C12 cells assessed as reduction in Smad1/5 phosphorylation at 0.1 to 10 uM pretreated for 2 hrs followed by BMP9-stimulation after 30 mins by western blot analysis. In kind it is cell-based.
Data set [20] addresses Vascular endothelial growth factor receptor 2 (Homo sapiens, UniProt P35968). In words: Inhibition of human KDR using poly[Glu:Tyr] (4:1) as substrate in presence of [gamma-33P]-ATP by scintillation counting method.
In data set [21] the target is Dual specificity mitogen-activated protein kinase kinase 4 (Homo sapiens) (UniProt P45985). The conditions noted are these: 1 uM.
Description: Inhibition of human MKK4 at 1 uM using JNK1 as substrate in presence of [gamma-33P]-ATP by scintillation counting method relative to control
Data set [22] concerns the target T2, Activin receptor type-1-like (Mus musculus). In words: Inhibition of BMP9-stimulated ALK1 in mouse C2C12 cells assessed as decrease in p38 phosphorylation at 0.1 to 10 uM pretreated for 2 hrs followed by BMP9-stimulation after 30 mins by western blot analysis. In kind it is cell-based.
The target in data set [23] is T3, TGF-beta receptor type-1. The experiment in a line: Inhibition of ALK5 in mouse C2C12 cells assessed as decrease in TGFbeta1-induced Smad1/5 phosphorylation at 0.1 uM by Western blot method. Format: cell-based.

Activity calls are given as the source filed them. The calls are words filed in the database; no cut-off is given here.

T1 sequence (P37023 whole entry): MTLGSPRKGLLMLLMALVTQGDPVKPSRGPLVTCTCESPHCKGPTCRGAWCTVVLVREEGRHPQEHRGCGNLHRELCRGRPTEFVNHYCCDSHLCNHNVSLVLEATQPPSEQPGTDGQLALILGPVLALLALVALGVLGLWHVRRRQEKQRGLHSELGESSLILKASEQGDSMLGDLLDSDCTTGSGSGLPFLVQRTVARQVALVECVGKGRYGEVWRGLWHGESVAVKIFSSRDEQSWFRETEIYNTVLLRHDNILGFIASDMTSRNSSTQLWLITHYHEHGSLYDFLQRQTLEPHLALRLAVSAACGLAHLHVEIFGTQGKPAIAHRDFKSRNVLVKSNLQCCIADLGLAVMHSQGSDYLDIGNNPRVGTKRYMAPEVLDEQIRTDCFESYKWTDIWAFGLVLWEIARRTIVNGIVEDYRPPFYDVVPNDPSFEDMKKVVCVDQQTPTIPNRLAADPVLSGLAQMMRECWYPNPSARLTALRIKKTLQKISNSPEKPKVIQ
TGF-beta receptor type-2 (Homo sapiens), sequence (P37173 whole entry): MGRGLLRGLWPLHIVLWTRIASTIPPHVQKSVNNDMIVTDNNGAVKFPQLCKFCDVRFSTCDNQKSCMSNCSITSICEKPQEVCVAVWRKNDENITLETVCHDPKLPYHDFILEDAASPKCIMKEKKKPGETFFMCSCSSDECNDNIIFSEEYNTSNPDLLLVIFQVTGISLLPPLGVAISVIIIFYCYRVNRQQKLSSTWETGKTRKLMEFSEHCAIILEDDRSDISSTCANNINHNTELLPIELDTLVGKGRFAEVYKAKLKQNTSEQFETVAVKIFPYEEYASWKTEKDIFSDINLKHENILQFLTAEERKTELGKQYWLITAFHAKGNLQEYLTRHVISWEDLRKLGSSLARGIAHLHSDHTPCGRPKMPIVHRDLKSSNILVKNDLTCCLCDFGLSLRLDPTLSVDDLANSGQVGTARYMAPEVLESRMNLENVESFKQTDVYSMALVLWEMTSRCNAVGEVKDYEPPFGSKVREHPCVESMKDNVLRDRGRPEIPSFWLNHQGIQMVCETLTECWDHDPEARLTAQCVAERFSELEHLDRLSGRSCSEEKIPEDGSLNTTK
Vascular endothelial growth factor receptor 2, sequence (P35968 whole entry): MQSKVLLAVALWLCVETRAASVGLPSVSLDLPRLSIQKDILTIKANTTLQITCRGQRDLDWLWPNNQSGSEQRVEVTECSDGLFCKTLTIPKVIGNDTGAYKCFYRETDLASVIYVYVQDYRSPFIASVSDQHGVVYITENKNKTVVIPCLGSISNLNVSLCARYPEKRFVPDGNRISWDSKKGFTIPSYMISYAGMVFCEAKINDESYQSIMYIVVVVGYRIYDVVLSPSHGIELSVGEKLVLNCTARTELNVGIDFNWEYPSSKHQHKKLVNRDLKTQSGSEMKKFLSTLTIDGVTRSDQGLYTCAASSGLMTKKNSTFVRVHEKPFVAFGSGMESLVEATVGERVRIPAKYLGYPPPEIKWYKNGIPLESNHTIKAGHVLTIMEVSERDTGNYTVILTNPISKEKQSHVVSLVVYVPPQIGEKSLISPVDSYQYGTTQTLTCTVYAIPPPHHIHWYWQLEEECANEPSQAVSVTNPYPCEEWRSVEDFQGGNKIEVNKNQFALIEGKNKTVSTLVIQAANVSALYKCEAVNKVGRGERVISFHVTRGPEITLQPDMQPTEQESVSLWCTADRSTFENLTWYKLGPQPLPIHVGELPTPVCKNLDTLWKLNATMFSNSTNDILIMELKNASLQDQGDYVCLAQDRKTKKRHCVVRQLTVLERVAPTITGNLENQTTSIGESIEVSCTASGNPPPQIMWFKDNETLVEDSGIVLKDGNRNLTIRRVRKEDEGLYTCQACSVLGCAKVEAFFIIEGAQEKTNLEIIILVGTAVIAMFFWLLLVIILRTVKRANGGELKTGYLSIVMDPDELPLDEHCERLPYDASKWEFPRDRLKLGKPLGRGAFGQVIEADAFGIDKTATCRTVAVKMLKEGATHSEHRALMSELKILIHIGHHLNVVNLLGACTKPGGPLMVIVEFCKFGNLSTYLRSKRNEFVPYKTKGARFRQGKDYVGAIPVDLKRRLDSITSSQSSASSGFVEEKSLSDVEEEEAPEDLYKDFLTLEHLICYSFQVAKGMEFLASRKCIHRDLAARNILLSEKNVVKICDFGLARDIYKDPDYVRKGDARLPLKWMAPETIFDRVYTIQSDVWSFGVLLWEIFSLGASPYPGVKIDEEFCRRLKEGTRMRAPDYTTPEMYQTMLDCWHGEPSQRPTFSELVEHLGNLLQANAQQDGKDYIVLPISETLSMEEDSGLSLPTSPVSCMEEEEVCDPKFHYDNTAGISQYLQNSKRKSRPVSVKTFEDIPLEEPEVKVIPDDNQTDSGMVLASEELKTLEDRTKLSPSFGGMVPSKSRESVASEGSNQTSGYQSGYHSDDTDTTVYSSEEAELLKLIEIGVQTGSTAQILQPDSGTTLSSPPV
Dual specificity mitogen-activated protein kinase kinase 2, sequence (P36507 whole entry): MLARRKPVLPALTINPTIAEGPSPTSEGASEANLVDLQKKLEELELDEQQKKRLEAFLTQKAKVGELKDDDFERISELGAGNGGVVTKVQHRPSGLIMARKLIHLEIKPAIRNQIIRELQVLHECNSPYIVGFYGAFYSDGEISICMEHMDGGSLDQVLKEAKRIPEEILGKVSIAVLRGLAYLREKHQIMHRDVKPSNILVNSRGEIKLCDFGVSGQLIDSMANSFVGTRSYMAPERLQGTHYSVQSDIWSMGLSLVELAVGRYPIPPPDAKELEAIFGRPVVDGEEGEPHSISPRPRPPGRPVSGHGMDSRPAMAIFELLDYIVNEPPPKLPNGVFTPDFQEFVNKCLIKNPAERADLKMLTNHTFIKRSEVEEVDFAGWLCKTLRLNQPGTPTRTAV
MAP kinase-interacting serine/threonine-protein kinase 1 (Homo sapiens), sequence (Q9BUB5 whole entry, looked up): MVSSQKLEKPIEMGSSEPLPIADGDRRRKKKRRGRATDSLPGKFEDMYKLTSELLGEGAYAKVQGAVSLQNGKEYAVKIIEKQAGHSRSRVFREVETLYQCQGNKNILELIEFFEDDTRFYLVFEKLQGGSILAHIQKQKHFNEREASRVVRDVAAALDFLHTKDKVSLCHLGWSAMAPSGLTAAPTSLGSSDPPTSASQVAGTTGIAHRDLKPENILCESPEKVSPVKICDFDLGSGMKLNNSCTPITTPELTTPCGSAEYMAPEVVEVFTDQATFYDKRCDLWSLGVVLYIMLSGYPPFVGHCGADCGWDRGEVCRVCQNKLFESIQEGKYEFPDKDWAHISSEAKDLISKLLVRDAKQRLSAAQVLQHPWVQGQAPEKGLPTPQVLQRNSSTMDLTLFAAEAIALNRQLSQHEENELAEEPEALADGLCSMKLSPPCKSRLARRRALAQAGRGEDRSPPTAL
MAP kinase-interacting serine/threonine-protein kinase 2 (Homo sapiens), sequence (Q9HBH9 whole entry, looked up): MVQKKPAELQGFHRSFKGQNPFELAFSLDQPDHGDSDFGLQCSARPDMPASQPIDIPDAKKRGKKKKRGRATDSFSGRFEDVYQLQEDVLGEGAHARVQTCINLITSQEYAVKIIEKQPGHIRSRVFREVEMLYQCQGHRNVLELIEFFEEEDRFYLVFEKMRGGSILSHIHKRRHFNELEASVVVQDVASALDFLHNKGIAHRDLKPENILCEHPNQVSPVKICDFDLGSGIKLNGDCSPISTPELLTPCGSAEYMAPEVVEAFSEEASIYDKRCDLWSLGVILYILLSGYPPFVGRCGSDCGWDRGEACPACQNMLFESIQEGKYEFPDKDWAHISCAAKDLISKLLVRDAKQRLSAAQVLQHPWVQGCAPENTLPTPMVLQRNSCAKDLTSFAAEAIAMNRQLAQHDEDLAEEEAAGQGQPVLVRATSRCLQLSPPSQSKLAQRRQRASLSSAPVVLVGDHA

As for `COc1cc(O)c2c(c1)CCC[C@H](O)[C@H](O)C(=O)NCC[C@H](C)OC2=O`, the inhibition (usually the change of the read-out against control, counted positive when it falls) in data set [1] was less than 40%. For the same compound, the inhibition result in [2] is “inactive”.
As for `COc1cc(O)c2c(c1)CCC[C@H](O)[C@H](O)C(=O)/C=C\C[C@H](C)OC2=O`, the IC50 (in general, the concentration that inhibits the measured activity by half) in data set [3] is 0.00113 µM; in [11], 0.00159 µM; in [13], 0.00816 µM; in [15], 0.125 µM; in data set [16], 0.388 µM; in data set [20] it was 0.00634 µM. The inhibition in data set [4], in data set [5], in data set [6], in data set [9], in data set [12] and in [14] was greater than 80% in each case. Further, the inhibition in [21] was greater than 80%. The “inhibition (INH)” value on TGF-beta receptor type-1 [7] and at TGF-beta receptor type-1 [10] was “Active” each time. Further, the inhibition entry in data set [8], in data set [17], in data set [18], in data set [19] and in [22] was “Active” each time.
For `COc1cc(O)c2c(c1)CCC[C@H](O)[C@H](O)[C@H](O)CCC[C@H](C)OC2=O`, the IC50 in data set [15] is 1.78 µM. Moreover, the inhibition entry in [2] is “Active”.
Consider `c1ccc2c(-c3cnn4cc(-c5ccc(N6CCNCC6)cc5)cnc34)ccnc2c1`, for which, at TGF-beta receptor type-1 [23], the “inhibition (INH)” value is recorded as “Active”.
`C=C1CCC[C@H](C)OC(=O)c2c(O)cc(OC)cc2CCC[C@H](O)[C@@H]1O`: in [15], the IC50 amounted to 1.26 µM. The inhibition in data set [2] lay within 70 to 80%.
The like results for `COc1cc(O)c2c(c1)CCC[C@H](O)[C@H](O)[C@@H](O)CCC[C@H](C)OC2=O` were, in that order, 0.77 µM and 70 to 80%.
